Target: T1, 1,2-propanediol dehydratase (PduCDE) (Citrobacter freundii, UniProt P0DUM7+P0DUM8)
T1 construct: gene pduC; purified enzyme, alpha2beta2gamma2; construct details only in Supporting Information; with Propanediol dehydratase small subunit
T1 sequence (P0DUM7 1-554): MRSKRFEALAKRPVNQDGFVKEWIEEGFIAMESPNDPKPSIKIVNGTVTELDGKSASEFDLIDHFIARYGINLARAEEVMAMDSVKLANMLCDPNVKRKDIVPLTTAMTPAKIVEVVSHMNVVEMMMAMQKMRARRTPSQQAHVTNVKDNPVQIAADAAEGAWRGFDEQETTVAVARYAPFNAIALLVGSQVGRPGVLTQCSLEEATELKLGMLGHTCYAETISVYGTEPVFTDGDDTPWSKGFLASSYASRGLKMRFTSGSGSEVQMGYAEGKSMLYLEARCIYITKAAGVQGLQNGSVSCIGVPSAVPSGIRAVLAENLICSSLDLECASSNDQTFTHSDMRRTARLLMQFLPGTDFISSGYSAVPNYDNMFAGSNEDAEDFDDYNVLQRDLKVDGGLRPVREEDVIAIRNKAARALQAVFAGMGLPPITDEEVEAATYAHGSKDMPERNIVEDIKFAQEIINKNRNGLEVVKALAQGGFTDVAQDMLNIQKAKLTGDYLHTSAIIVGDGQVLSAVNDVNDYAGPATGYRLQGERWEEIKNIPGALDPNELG
T1 sequence (P0DUM8 1-224): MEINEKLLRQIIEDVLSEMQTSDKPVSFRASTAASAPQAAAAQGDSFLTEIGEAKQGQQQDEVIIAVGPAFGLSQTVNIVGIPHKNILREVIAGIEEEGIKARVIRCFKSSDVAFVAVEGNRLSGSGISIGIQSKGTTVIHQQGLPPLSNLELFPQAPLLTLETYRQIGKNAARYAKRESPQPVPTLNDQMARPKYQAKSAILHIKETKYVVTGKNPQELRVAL
T1 sequence (P0DUM9 1-172 partner): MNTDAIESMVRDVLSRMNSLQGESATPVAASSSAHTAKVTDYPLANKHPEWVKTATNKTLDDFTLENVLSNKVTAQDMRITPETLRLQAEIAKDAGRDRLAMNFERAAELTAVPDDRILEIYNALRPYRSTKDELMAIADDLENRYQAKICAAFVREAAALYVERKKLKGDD
Test: enzyme inhibition kinetics, non-linear regression
Type: biochemical
Conditions: competitive with AdoCbl

Substance | Ki (inactive as pseudo-coenzyme) | Ki
AdoRbl | 6.9 µM | 
vitamin B12 |  | 2.5 µM
